# Results taken from patent US20240251785A1, “SMALL MOLECULE ANTAGONISTS AND AGONISTS OF ARTHROPOD KININ RECEPTORS FOR PEST CONTROL” (The Texas A&M University System, priority 2021, published 2024).
# Biological target: recombinant tick kinin receptor (BMLK3) (Rhipicephalus microplus, UniProt Q9NHA4)
# Experiment: Dose-response dual-addition calcium fluorescence assay on BMLK3 cells
# Format: cell-based
# Conditions: not given
# Sequence of recombinant tick kinin receptor (BMLK3) (Q9NHA4 entry or part of it): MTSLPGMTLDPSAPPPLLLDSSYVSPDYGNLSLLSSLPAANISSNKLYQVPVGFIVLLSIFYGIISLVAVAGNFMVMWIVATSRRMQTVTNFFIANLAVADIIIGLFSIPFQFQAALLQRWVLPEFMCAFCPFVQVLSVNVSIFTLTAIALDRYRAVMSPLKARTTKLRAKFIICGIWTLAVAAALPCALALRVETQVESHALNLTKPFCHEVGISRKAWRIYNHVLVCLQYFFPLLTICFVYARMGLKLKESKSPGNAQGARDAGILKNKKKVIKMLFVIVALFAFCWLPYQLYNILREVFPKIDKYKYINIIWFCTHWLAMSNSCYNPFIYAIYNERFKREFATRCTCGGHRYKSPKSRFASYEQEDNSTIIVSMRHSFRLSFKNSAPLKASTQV
SMILES,EC50 [µM],IC50 [µM]
C/N=c1\[nH]c2cc([N+](=O)[O-])c([N+](=O)[O-])cc2[nH]\c1=N\C [SACC-0010666],0.914,0.808

# Same assay, conditions: 12 μM; BMLK3 cells
row,SMILES,Inhibitory Efficacy at 12 μM [%]
1,C[C@@](O)(C#Cc1ccccc1)c1ccc(N2CCCCC2)c(F)c1 [SACC-0006795],33.05
2,C/C(CCC(C)C)=N\N=C(/S)NCc1ccccc1 [SACC-0018618],55.77
3,Cc1ccc(S(=O)(=O)Nc2ccc3nc(N)sc3c2)cc1 [SACC-0034373],26.16
4,Cc1csc2ncnc(NCCc3ccc(Cl)cc3)c12 [SACC-0039590],69.87
5,CCCCCCCCn1c2c(c(=N)c3c1CCC3)CCCC2 [SACC-0050177],35.48

# Same assay, conditions: BMLK3 cells, Rhimi-K-1 1 μmol L^−1
row,SMILES,"activity type in dose-response assay, in words"
1,C/C(CCC(C)C)=N\N=C(/S)NCc1ccccc1 [SACC-0018618],full agonist

# Same assay, conditions: first addition, 20 concentrations 28 nM-25 μM; read-out: BMLK3 EC50
row,SMILES,EC50 [µM]
1,C[C@@](O)(C#Cc1ccccc1)c1ccc(N2CCCCC2)c(F)c1 [SACC-0006795],> 25
2,C/C(CCC(C)C)=N\N=C(/S)NCc1ccccc1 [SACC-0018618],> 25
3,CCCCCCCCn1c2c(c(=N)c3c1CCC3)CCCC2 [SACC-0050177],7.08

# Same assay, conditions: read-out: Inhibitory Efficacy at 12 μM
row,SMILES,inhibition at 12 µM [%]
1,C/N=c1\[nH]c2cc([N+](=O)[O-])c([N+](=O)[O-])cc2[nH]\c1=N\C [SACC-0010666],4.47

# Same assay, conditions: second addition Rhimi-K-1 1 μmol L^−1; read-out: BMLK3 IC50
row,SMILES,IC50 [µM]
1,C[C@@](O)(C#Cc1ccccc1)c1ccc(N2CCCCC2)c(F)c1 [SACC-0006795],17.3
2,C/C(CCC(C)C)=N\N=C(/S)NCc1ccccc1 [SACC-0018618],4.29
3,CCCCCCCCn1c2c(c(=N)c3c1CCC3)CCCC2 [SACC-0050177],> 25

# Same assay, conditions: summary of 36 validated antagonist hits; BMLK3 cells; read-out: BMLK3 EC50
row,SMILES,EC50 [µM]
1,C[C@@](O)(C#Cc1ccccc1)c1ccc(N2CCCCC2)c(F)c1 [SACC-0006795],> 25
2,C/C(CCC(C)C)=N\N=C(/S)NCc1ccccc1 [SACC-0018618],> 25
3,Cc1ccc(S(=O)(=O)Nc2ccc3nc(N)sc3c2)cc1 [SACC-0034373],1.96
4,CCCCCCCCn1c2c(c(=N)c3c1CCC3)CCCC2 [SACC-0050177],7.08

# Same assay, conditions: summary of 36 validated antagonist hits; BMLK3 cells; read-out: BMLK3 IC50
row,SMILES,IC50 [µM]
1,C[C@@](O)(C#Cc1ccccc1)c1ccc(N2CCCCC2)c(F)c1 [SACC-0006795],17.3
2,C/C(CCC(C)C)=N\N=C(/S)NCc1ccccc1 [SACC-0018618],4.29
3,Cc1ccc(S(=O)(=O)Nc2ccc3nc(N)sc3c2)cc1 [SACC-0034373],6.22
4,CCCCCCCCn1c2c(c(=N)c3c1CCC3)CCCC2 [SACC-0050177],> 25

# Same assay, conditions: virtual hit molecules; dual-addition assay, recombinant tick kinin receptor (BMLK3) cells; read-out: BMLK3 EC50
row,SMILES,EC50 [µM]
1,Cc1ccc(S(=O)(=O)Nc2ccc3nc(N)sc3c2)cc1 [SACC-0034373],1.96

# Same assay, conditions: virtual hit molecules; dual-addition assay, recombinant tick kinin receptor (BMLK3) cells; read-out: BMLK3 antagonist IC50
row,SMILES,IC50 [µM]
1,Cc1ccc(S(=O)(=O)Nc2ccc3nc(N)sc3c2)cc1 [SACC-0034373],6.22

# Test system: R. microplus kinin receptor
# Experiment: High-throughput dual-addition calcium fluorescence screen on BMLK3 cells
# Format: cell-based, Rhipicephalus microplus
# Conditions: compound 2 μmol L^−1, 5 min, then FFFSWGa 500 nmol L^−1
row,SMILES,antagonist Io (%)
1,C[C@@](O)(C#Cc1ccccc1)c1ccc(N2CCCCC2)c(F)c1 [SACC-0006795],55
2,C/C(CCC(C)C)=N\N=C(/S)NCc1ccccc1 [SACC-0018618],58

# Test system: vector-only (V/O) CHO-K1 cells
# Experiment: Dose-response dual-addition calcium fluorescence assay on vector-only cells
# Format: cell-based
# Conditions: Cricetulus griseus, CHO-K1; V/O cells, first addition
row,SMILES,EC50 [µM]
1,C/N=c1\[nH]c2cc([N+](=O)[O-])c([N+](=O)[O-])cc2[nH]\c1=N\C [SACC-0010666],1.35

# Same assay, conditions: Cricetulus griseus, CHO-K1; V/O cells, second addition Rhimi-K-1 1 μmol L^−1; read-out: V/O antagonist IC50
row,SMILES,IC50 [µM]
1,C/N=c1\[nH]c2cc([N+](=O)[O-])c([N+](=O)[O-])cc2[nH]\c1=N\C [SACC-0010666],14.9

# Same assay, conditions: Cricetulus griseus, CHO-K1; summary of 36 validated antagonist hits; vector-only cell (V/O)
row,SMILES,IC50 [µM]
1,C/N=c1\[nH]c2cc([N+](=O)[O-])c([N+](=O)[O-])cc2[nH]\c1=N\C [SACC-0010666],14.9

# Same assay, conditions: V/O cells, first addition
row,SMILES,EC50 [µM]
1,C[C@@](O)(C#Cc1ccccc1)c1ccc(N2CCCCC2)c(F)c1 [SACC-0006795],< 0.0285
2,C/C(CCC(C)C)=N\N=C(/S)NCc1ccccc1 [SACC-0018618],> 25
3,CCCCCCCCn1c2c(c(=N)c3c1CCC3)CCCC2 [SACC-0050177],> 25

# Same assay, conditions: V/O cells, second addition Rhimi-K-1 1 μmol L^−1; read-out: V/O antagonist IC50
row,SMILES,IC50 [µM]
1,C[C@@](O)(C#Cc1ccccc1)c1ccc(N2CCCCC2)c(F)c1 [SACC-0006795],> 25
2,C/C(CCC(C)C)=N\N=C(/S)NCc1ccccc1 [SACC-0018618],> 25
3,CCCCCCCCn1c2c(c(=N)c3c1CCC3)CCCC2 [SACC-0050177],12.3

# Same assay, conditions: summary of 36 validated antagonist hits; vector-only cell (V/O)
SMILES,EC50 [µM],IC50 [µM]
C[C@@](O)(C#Cc1ccccc1)c1ccc(N2CCCCC2)c(F)c1 [SACC-0006795],< 0.0285,> 25
C/C(CCC(C)C)=N\N=C(/S)NCc1ccccc1 [SACC-0018618],> 25,> 25
Cc1ccc(S(=O)(=O)Nc2ccc3nc(N)sc3c2)cc1 [SACC-0034373],2.49,> 25
Cc1csc2ncnc(NCCc3ccc(Cl)cc3)c12 [SACC-0039590],1.63,5.58
CCCCCCCCn1c2c(c(=N)c3c1CCC3)CCCC2 [SACC-0050177],> 25,12.3

# Same assay, conditions: virtual hit molecules; dual-addition assay, vector-only cell (V/O)
row,SMILES,EC50 [µM]
1,Cc1ccc(S(=O)(=O)Nc2ccc3nc(N)sc3c2)cc1 [SACC-0034373],2.49
2,Cc1csc2ncnc(NCCc3ccc(Cl)cc3)c12 [SACC-0039590],1.63

# Same assay, conditions: virtual hit molecules; dual-addition assay, vector-only cell (V/O); read-out: V/O antagonist IC50
row,SMILES,IC50 [µM]
1,Cc1ccc(S(=O)(=O)Nc2ccc3nc(N)sc3c2)cc1 [SACC-0034373],> 25
2,Cc1csc2ncnc(NCCc3ccc(Cl)cc3)c12 [SACC-0039590],5.58

# Test system: Human dermal fibroblasts (HDF) cells
# Experiment: Cytotoxicity assay (resazurin)
# Format: cell-based
# Conditions: Human dermal fibroblasts cells; tested at 20 μcool L^−1
row,SMILES,HDF average % growth inhibition [%]
1,C[C@@](O)(C#Cc1ccccc1)c1ccc(N2CCCCC2)c(F)c1 [SACC-0006795],−1.773
2,C/C(CCC(C)C)=N\N=C(/S)NCc1ccccc1 [SACC-0018618],7.327
3,Cc1ccc(S(=O)(=O)Nc2ccc3nc(N)sc3c2)cc1 [SACC-0034373],−7
4,Cc1csc2ncnc(NCCc3ccc(Cl)cc3)c12 [SACC-0039590],−13.23
5,CCCCCCCCn1c2c(c(=N)c3c1CCC3)CCCC2 [SACC-0050177],38.55

# Same assay, conditions: human, 48 h, 20 μmol L^−1
row,SMILES,HDF average % growth inhibition [%]
1,C/N=c1\[nH]c2cc([N+](=O)[O-])c([N+](=O)[O-])cc2[nH]\c1=N\C [SACC-0010666],−4.62
